Source: patent US9353150B2, “Substituted pyrazino[1′,2′:1 ,5]pyrrolo[2,3-b]-indole-1,4-diones for cancer treatment” (Massachusetts Institute of Technology, priority 2012, dated 2016)
Like-named read-outs stand apart in the source and are kept apart here.

How the values were obtained:
[1] = tested on: HeLa (cervical carcinoma); assay: 72-hour IC50 determination for adherent cells using sulforhodamine B (SRB); format: cell-based, human
Method: (§1) Certain synthesized compounds were screened for their ability to induce death in two human cancer cell lines: U-937 (leukemic monocyte lymphoma) and HeLa (cervical cancer).
(§2) Cells were grown in media supplemented with fetal bovine serum (FBS) and antibiotics ([…]). Specifically, experiments were performed using the following cell lines and media compositions: U-937, HeLa, H460, and 786-O (RPMI-1640+10% FBS), and MCF7 (EMEM+10% FBS). Cells were incubated at 37° C. in a 5% CO2, 95% humidity atmosphere.
(§3) Adherent cells (HeLa, H460, 786-O, and MCF7) were added into 96-well plates (5,000 cells/well for HeLa cell line; 2,000 cells/well for H460, 786-O, and MCF7 cell lines) in 100 μL media and were allowed to adhere for 2-3 hours. Compounds were solubilized in DMSO as 100× stocks, added directly to the cells (100 μL final volume), and tested over a range of concentrations in triplicate (1% DMSO final) on a half-log scale. Concentrations tested ranged from […] to 10 μM, depending on the potency of the compound. DMSO and cell-free wells served as the live and dead control, respectively. After 72 hours of continuous exposure, the plates were evaluated using the SRB colorimetric assay as described previously (Vichai, V.; Kirtikara, K. Nature Prot. 2006, 1, 1112). Briefly, media was removed from the plate, and cells were fixed by the addition of 100 μL cold 10% trichloroacetic acid in water. After incubating at 4° C. for an hour, the plates were washed in water and allowed to dry. Sulforhodamine B was added as a 0.057% solution in 1% acetic acid (100 μL), and the plates were incubated at room temperature for 30 minutes, washed in 1% acetic acid, and allowed to dry. The dye was solubilized by adding 10 mM Tris base solution (pH 10.5, 200 μL) and incubating at room temperature for 30 minutes. Plates were read at λ=510 nm. IC50 values were determined from three or more independent experiments using TableCurve (San Jose, Calif.).

H460 (lung carcinoma) = assay: as above; format: cell-based, human; conditions: error is standard deviation of the mean, n ≧ 3, read-out: H460, 72-hour IC50 (Table E1-2)
Method: (§4) Certain provided compounds were tested in culture against a panel of three supplementary human cancer cell lines representing three additional tumor histologies (H460, lung carcinoma; 786-O, renal carcinoma; MCF-7, breast carcinoma). As shown in Table E1-2, the ETPs retain their potency across the cell lines. In some embodiments, a provided compound is active in all cell lines. In some embodiments, a provide compound can be used to selectively target certain cells and/or cancers. […] Without the intention to be limited, Applicant notes that certain cell lines could be more sensitive to provided compounds; for example, U-937 and HeLa are slightly more sensitive to the ETPs than the other three cell lines.
as §2, §3

786-O (renal carcinoma) = assay: as above; format: cell-based, human; conditions: error is standard deviation of the mean, n ≧ 3, read-out: 786-O, 72-hour IC50 (Table E1-2)
Method: as §4, §2, §3

MCF-7 (breast carcinoma) = assay: as above; format: cell-based, human; conditions: error is standard deviation of the mean, n ≧ 3, read-out: MCF-7, 72-hour IC50 (Table E1-2)
Method: as §4, §2, §3

[2] = tested on: U-937 (hystiocytic lymphoma); assay: 72-hour IC50 determination for non-adherent cells using MTS; format: cell-based, human
Method: as §1, §2
(§5) In a 96-well plate, compounds were pre-added as DMSO stocks in triplicate to achieve a final concentration of 1%. DMSO and cell-free wells served as the live and dead control, respectively. U-937 (5,000 cells/well) cells were distributed in 100 μL media to the compound-containing plate. After 72 hours, cell viability was assessed by adding 20 μL of a PMS/MTS solution (Cory, A. H.; Owen, T. C.; Barltrop, J. A.; Cory, J. G. Cancer Commun. 1991, 3, 207) to each well, allowing the dye to develop at 37° C. until the live control had processed MTS, and reading the absorbance at λ=490 nm. IC50 values were determined from three or more independent experiments using TableCurve (San Jose, Calif.).

human cancer cell lines = assay: Anticancer activity in human cancer cell lines, not tied to one cell line; format: cell-based; conditions: for anticancer activity, in words: human cancer cell lines, 72-hour exposure; for IC50: Homo sapiens, cell line not named in the sentence (U-937 and HeLa screened), read-out: IC50 (did not display any anticancer activity)
Method: as §1, §4, §3, §5

[3] = Homo sapiens, HeLa, 72-hour exposure, SRB, error is standard deviation of the mean, n ≧ 3, read-out: HeLa, 72-hour IC50 (Table E1-1)
[4] = Homo sapiens, U-937, 72-hour exposure, MTS, error is standard deviation of the mean, n ≧ 3, read-out: U-937, 72-hour IC50 (Table E1-1)
[5] = 72-hour exposure, SRB, error is standard deviation of the mean, n ≧ 3, read-out: HeLa, 72-hour IC50 (Table E1-1)
[6] = 72-hour exposure, MTS, error is standard deviation of the mean, n ≧ 3, read-out: U-937, 72-hour IC50 (Table E1-1)
[7] = 72-hour exposure, SRB, error is standard deviation of the mean, n ≧ 3, read-out: HeLa, 72-hour IC50 (Table E1-2)
[8] = 72-hour exposure, MTS, error is standard deviation of the mean, n ≧ 3, read-out: U-937, 72-hour IC50 (Table E1-2)

CN1C(=O)[C@@]23C[C@]4(c5c[nH]c6ccccc56)c5ccccc5N[C@@H]4N2C(=O)[C@@H]1SS3 [Compound 10, (+)-12-deoxybionectin A]
IC50 ([1]; Homo sapiens, HeLa, 72 h, read-out: HeLa, 72-hour IC50 (Table E1-1)): 117 ± 26 nM | IC50 ([1]; Homo sapiens, HeLa, 72 h, read-out: HeLa, 72-hour IC50 (Table E1-2)): 117 ± 26 nM | IC50 (H460 (lung carcinoma); Homo sapiens, NCI-H460, 72-hour exposure): 215 ± 100 nM | IC50 (786-O (renal carcinoma); Homo sapiens, 786-0, 72-hour exposure): 181 ± 26 nM | IC50 (MCF-7 (breast carcinoma); Homo sapiens, MCF7, 72-hour exposure): 156 ± 18 nM | IC50 ([2]; Homo sapiens, U-937, 72 h, read-out: U-937, 72-hour IC50 (Table E1-1)): 17.4 ± 1.1 nM | IC50 ([2]; Homo sapiens, U-937, 72 h, read-out: U-937, 72-hour IC50 (Table E1-2)): 17.4 ± 1.1 nM

CCC[C@]12CC34SC(=S)SC(C)(C(=O)N3C1N(S(=O)(=O)c1ccccc1)c1ccccc12)N(C)C4=O (stereo partly drawn) [Compound 67, C3-Propyl dithiepanethiones]
IC50 [1, 3]: > 1000 nM | anticancer activity, in words (human cancer cell lines): inactive | IC50 [2, 4]: > 1000 nM

COCS[C@H]1C(=O)N2[C@H]3Nc4ccccc4[C@@]3(c3c[nH]c4ccccc34)C[C@]2(SCOC)C(=O)N1C [Compound 41, C3-(Indol-3′-yl)bis(S-MOM)ether]
IC50 [1, 3]: > 10000 nM | IC50 (human cancer cell lines): > 10000 nM | IC50 [2, 4]: > 10000 nM

CN1C(=O)[C@]23C[C@]4(Br)c5ccccc5N(S(=O)(=O)c5ccccc5)[C@@H]4N2C(=O)[C@H]1SS3 [Compound 34, C3-Bromo epidithiodiketopiperazines]
IC50 [1, 5]: 550 ± 33 nM | anticancer activity, in words (human cancer cell lines): inactive | IC50 [2, 6]: 59 ± 23 nM

CCC[C@]12C[C@@]34SC(=S)S[C@@](C)(C(=O)N3C1N(S(=O)(=O)c1ccccc1)c1ccccc12)N(C)C4=O (stereo partly drawn) [Compound 65, C3-Propyl dithiepanethiones]
IC50 [1, 3]: > 1000 nM | anticancer activity, in words (human cancer cell lines): substantially lower potencies | IC50 [2, 4]: > 1000 nM

CC(=O)OC[C@]12SS[C@@]3(C[C@]4([C@]56C[C@@]78SS[C@@](COC(C)=O)(C(=O)N7[C@H]5Nc5ccccc56)N(C)C8=O)c5ccccc5N[C@@H]4N3C1=O)C(=O)N2C [Compound 15]
IC50 [1, 5]: 14.1 ± 7.4 nM | IC50 [1, 7]: 14.1 ± 7.4 nM | IC50 (H460 (lung carcinoma); 72-hour exposure): 140 ± 82 nM | IC50 (786-O (renal carcinoma); 72-hour exposure): 95 ± 23 nM | IC50 (MCF-7 (breast carcinoma); 72-hour exposure): 77 ± 36 nM | IC50 [2, 6]: 4.7 ± 1.3 nM | IC50 [2, 8]: 4.7 ± 1.3 nM

CN1C(=O)[C@@]23C[C@]4(c5c[nH]c6ccccc56)c5ccccc5N(S(=O)(=O)c5ccccc5)[C@@H]4N2C(=O)[C@]1(C)SS3 [Compound 60, C3-(Indol-3′-yl) epidithiodiketopiperazines]
IC50 [1, 5]: 67 ± 11 nM | IC50 [1, 7]: 67 ± 11 nM | IC50 (H460 (lung carcinoma); 72-hour exposure): 165 ± 65 nM | IC50 (786-O (renal carcinoma); 72-hour exposure): 907 ± 48 nM | IC50 (MCF-7 (breast carcinoma); 72-hour exposure): 327 ± 36 nM | IC50 [2, 6]: 56 ± 23 nM | IC50 [2, 8]: 56 ± 23 nM

CN1C(=O)[C@@]2(SCc3ccccc3)C[C@]3(c4cn(C(=O)OC(C)(C)C)c5ccccc45)c4ccccc4N(S(=O)(=O)c4ccccc4)[C@@H]3N2C(=O)[C@@H]1SCc1ccccc1 [Compound 43, C3-(N-Boc-indol-3′-yl)bis(benzylthioether)]
IC50 [1, 3]: > 10000 nM | IC50 (human cancer cell lines): > 10000 nM | IC50 [2, 4]: > 10000 nM
